The record followed here is PubChem BioAssay AID1963965 (Molecular Pharmacology Branch, DTP, NCI, 2024).

The viability, T/C is the ratio of treated to control. The IC50 is the point on the concentration scale where inhibition reaches its midpoint.

Values joined by “and” are separate entries in the source; they are usually repeats but may differ in a detail not shown here. Equal values may be shown once.

The experiment has as its system 996289-038-R-J1-PDC spheroid viability. The experiment can be described thus: Anticancer human tumor 996289-038-R-J1-PDC patient-derived colon adenocarcinoma cell line growth inhibition [PI3K]. The conditions noted are these: spheroids with HUVEC and MSC; for viability, T/C: stronger effect = lower value. An excerpt: Combinatorial screen of targeted agents with the PI3K inhibitors inavolisib, alpelisib, duvelisib, and copanlisib in multi-cell type tumor spheroids
A high-throughput screen of multi-cell type tumor spheroids was designed to identify active combinations of targeted small molecules and PI3K pathway inhibitors. Complex spheroids include a stromal component modeled by human endothelial cells (HUVEC) and fibroblasts modeled by human mesenchymal stem cells (MSCs). The concentration ranges selected for each drug and investigational agent were based upon clinically achievable concentrations if the clinical Cmax of the agent was known.
Compounds. The drugs and investigational agents: inavolisib (NSC800729), alpelisib (NSC765974), duvelisib (NSC772469), copanlisib (NSC816437), ipatasertib (NSC767898), afuresertib (NSC778305), talazoparib (NSC767125), sapanisertib (NSC764658), selumetinib (NSC741078), tovorafenib (DAY101, NSC766906), vemurafenib (NSC761431), ravoxertinib (NSC781343), sotorasib (NSC818433), MRTX1133 (NSC 836407), abemaciclib (NSC 768073), palbociclib (NSC758247), venetoclax (NSC 766270), SY5609 (NSC837396), enzalutamide (NSC755605), and darolutamide (NSC825331), were obtained from the National Cancer Institute (NCI) Developmental Therapeutics Program Chemical Repository. The FDA-approved anticancer drug set is available from the NCI Developmental Therapeutics Program. […] The stock solutions were prepared in dimethyl sulfoxide (DMSO, Sigma-Aldrich, St. Louis, MO, cat. D2650) at 800-fold the tested concentration and stored at -70 degrees C prior to their use. All drugs and investigational agents were tested over a range starting from a high concentration at or near the clinical Cmax and decreasing in half-log increments. If the clinical Cmax for an agent had not been determined, the highest concentration tested was 10 microM.
Cell Culture. All cells were maintained in an incubator at 37 degrees C and 5% CO2 with 95% humidity. The PDC lines were cultured according to standard operating procedures established by the NCI PDMR (https://pdmr.cancer.gov/sops/default.htm). All PDCs were thawed and cultured in Matrigel-coated flasks prepared with a working solution of 1X Ham's F-12 nutrient mix, without supplementation (Invitrogen, Waltham, MA, cat. 11765054), 100 U/mL penicillin-streptomycin (Invitrogen, cat. 15140122), and 2.5% Matrigel (Corning Inc., Corning, NY, cat. 354248) for the first three passages. The 354836-022-R-J1-PDC, 475296-252-R-J1-PDC, and 997726-040-R-J2-PDC lines were cultured in 6A media, which includes advanced DMEM/F-12 (Thermo Fisher Scientific, cat. 12634028), 10 mM HEPES (Thermo Fisher Scientific, cat. 15630080), 1X GlutaMAX supplement (Thermo Fisher Scientific, cat. 35050061), 0.1 mg/mL primocin (InvivoGen, San Diego, CA, cat. ant-pm-2), 10% defined fetal bovine serum, heat inactivated (HyClone Laboratories Inc., Logan, UT, cat. SH30070.03HI), 50% L-WRN conditioned media (ATCC, cat. CRL-3276), 1.25 mM N-Acetyl-L-cysteine (Sigma-Aldrich, cat. A9165), 10 mM nicotinamide (Sigma-Aldrich, cat. N0636), 1X B-27 supplement (Thermo Fisher Scientific, cat. 17504044), 1X N-2 supplement (Thermo Fisher Scientific, cat. 17502048), and 10 microM Y-27632 dihydrochloride (Tocris Bioscience, Bristol, United Kingdom, cat. 1254). The 624824-186-R-J2-PDC line was cultured in 6C/Colon 1B media, which includes all 6A media components plus 50 ng/mL human EGF recombinant protein (Thermo Fisher Scientific, cat. PHG0311). […]
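Note: spheroids exposed to compounds for seven days before viability read.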
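Throughout, for viability, T/C: luminescence used as a proxy for viable cell amount; percent viability relative to DMSO vehicle control as 100%.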

`C#Cc1c(F)ccc2cc(O)cc(-c3ncc4c(N5CC6CCC(C5)N6)nc(OCC56CCCN5CC(F)C6)nc4c3F)c12` (configuration not stated): the viability, T/C is 90.4% [middle of 4 runs] (compound 0.0316 µM); 83.8% [middle of 4 runs] (compound 0.1 µM); 70.2% [middle of 4 runs] (compound 0.316 µM); 52.4% [middle of 4 runs] (compound 1 µM); 44.8% [middle of 4 runs] (compound 3.16 µM); 37.7% [middle of 4 runs] (compound 10 µM). Also, where the note is “curve of compound”, the half-inhibitory concentration (IC50) is 1.79 µM [middle of 4 runs].

For `C=CC(=O)N1CCN(c2nc(=O)n(-c3c(C)ccnc3C(C)C)c3nc(-c4c(O)cccc4F)c(F)cc23)C(C)C1` (configuration not stated), the viability, T/C by setting is: (compound 0.0316 µM) 99.2% [middle of 4 runs]; (compound 0.1 µM) 97.6% [middle of 4 runs]; (compound 1 µM) 106% [middle of 4 runs]; (compound 3.16 µM) 117% [middle of 4 runs]; (compound 10 µM) 111% [middle of 4 runs]. Also, the IC50 (curve of compound) is over 10 µM.

Turning to `CC(C)NCC(C(=O)N1CCN(c2ncnc3c2C(C)CC3O)CC1)c1ccc(Cl)cc1` (configuration not stated), the viability, T/C by setting is: (compound 0.0316 µM) 106% [middle of 4 runs]; (compound 0.1 µM) 86.8% [middle of 4 runs]; (compound 0.316 µM) 99.8% [middle of 4 runs]; (compound 1 µM) 94.2% [middle of 4 runs]; (compound 3.16 µM) 88% [middle of 4 runs]; (compound 10 µM) 78.7% [middle of 4 runs]. Besides, the IC50 (curve of compound) was over 10 µM.

For `CC(Cn1ccc(-c2ccc(C#N)c(Cl)c2)n1)NC(=O)c1cc(C(C)O)[nH]n1` (configuration not stated), the viability, T/C reads like this: (compound 0.0316 µM) 98.8% [middle of 4 runs]; (compound 0.1 µM) 104% (2×) and 86.4% and 92.5%; (compound 0.316 µM) 86.8% and 108% (2×) and 113%; (compound 1 µM) 108% [middle of 4 runs]; (compound 3.16 µM) 97.8% [middle of 4 runs]; (compound 10 µM) 101% [middle of 4 runs]. The IC50 (curve of compound) was over 10 µM.

As to `CC(Nc1ncnc2nc[nH]c12)c1cc2cccc(Cl)c2c(=O)n1-c1ccccc1` (configuration not stated), the viability, T/C by setting is: (compound 0.0316 µM) 99.9% [middle of 8 runs]; (compound 0.1 µM) 98% [middle of 8 runs]; (compound 0.316 µM) 97.6% [middle of 8 runs]; (compound 3.16 µM) 89.2% [middle of 8 runs]; (compound 10 µM) 95.7% [middle of 8 runs]. The IC50 (compound alone, run of 06/13/2023) was over 10 µM.

Regarding `CC1(C)CCC(CN2CCN(c3ccc(C(=O)NS(=O)(=O)c4ccc(NCC5CCOCC5)c([N+](=O)[O-])c4)c(Oc4cnc5[nH]ccc5c4)c3)CC2)=C(c2ccc(Cl)cc2)C1`, the viability, T/C (compound 0.1 µM) was 103% [middle of 4 runs]; the viability, T/C (compound 0.316 µM) was 101% [middle of 4 runs]; the viability, T/C (compound 1 µM) was 111% [middle of 4 runs]; the viability, T/C (compound 3.16 µM) was 112% [middle of 4 runs]; the viability, T/C (compound 10 µM) is 59.5% [middle of 4 runs]. The IC50 (curve of compound) was > 10 µM and 8.8 µM and 8.7 µM.

Consider `CC1(C)CCC(Nc2ncc(C(F)(F)F)c(-c3c[nH]c4c(P(C)(C)=O)c(C#N)ccc34)n2)CN1` (configuration not stated), for which the viability, T/C was 86.5% [middle of 4 runs] (compound 0.1 µM); 86% [middle of 4 runs] (compound 0.316 µM); 88.9% [middle of 4 runs] (compound 1 µM); 91.5% [middle of 4 runs] (compound 3.16 µM); 26.9% [middle of 4 runs] (compound 10 µM). For the same compound, under “curve of compound”, the IC50 is 6.64 µM [middle of 4 runs].

Take `CCCS(=O)(=O)Nc1ccc(F)c(C(=O)c2c[nH]c3ncc(-c4ccc(Cl)cc4)cc23)c1F`: the viability, T/C was 106% [middle of 4 runs] (compound 0.0316 µM); 93.7% [middle of 4 runs] (compound 0.1 µM); 100% [middle of 4 runs] (compound 0.316 µM); 94.5% [middle of 4 runs] (compound 1 µM); 96.8% [middle of 4 runs] (compound 3.16 µM); 23.3% [middle of 4 runs] (compound 10 µM). For the same compound, under “curve of compound”, the IC50 was 6.53 µM [middle of 4 runs].

As for `CNC(=O)c1ccc(N2C(=S)N(c3ccc(C#N)c(C(F)(F)F)c3)C(=O)C2(C)C)cc1F`, the viability, T/C was 111% and 106% (2×) and 100% (compound 0.0316 µM); 97% [middle of 4 runs] (compound 0.1 µM); 111% [middle of 4 runs] (compound 0.316 µM); 113% [middle of 4 runs] (compound 1 µM). In addition, the IC50 (curve of compound) was over 10 µM.

Take `C[C@@H](NC(=O)c1ncnc(N)c1Cl)c1ncc(C(=O)Nc2cc(C(F)(F)F)c(Cl)cn2)s1`: the viability, T/C reads like this: (compound 0.0316 µM) 110% [middle of 4 runs]; (compound 0.1 µM) 103% [middle of 4 runs]; (compound 0.316 µM) 110% (2×) and 119% and 115%; (compound 1 µM) 114% [middle of 4 runs]; (compound 10 µM) 131% [middle of 4 runs]. In addition, the IC50 (curve of compound) is over 10 µM.

In the case of `Cn1ncc(Cl)c1-c1cc(C(=O)NC(CN)Cc2cccc(F)c2)sc1Cl` (configuration not stated), the viability, T/C (compound 0.0316 µM) was 90% [middle of 4 runs]; the viability, T/C (compound 0.1 µM) was 90.5% [middle of 4 runs]; the viability, T/C (compound 0.316 µM) is 84% [middle of 4 runs]; the viability, T/C (compound 1 µM) is 79.9% [middle of 4 runs]; the viability, T/C (compound 3.16 µM) was 75.6% [middle of 4 runs]; the viability, T/C (compound 10 µM) is 52.2% [middle of 4 runs]. In addition, the IC50 (curve of compound) was > 10 µM and 9.82 µM.

Take `Cn1nccc1Nc1nccc(-c2ccn(C(CO)c3ccc(Cl)c(F)c3)c(=O)c2)n1` (configuration not stated): the viability, T/C is 98.7% [middle of 4 runs] (compound 0.0316 µM); 97% [middle of 4 runs] (compound 0.1 µM); 112% [middle of 4 runs] (compound 0.316 µM); 90.8% [middle of 4 runs] (compound 1 µM); 76.5% [middle of 4 runs] (compound 3.16 µM); 64.7% [middle of 4 runs] (compound 10 µM). Further, the IC50 (curve of compound) is over 10 µM.
